{"source": "paper PMC8191290", "about": "“Substrate specificities and reaction kinetics of the yeast oligosaccharyltransferase isoforms” (The Journal of Biological Chemistry, 2021)", "molecules": {"B1": {"name": "TAMRA-DANYTK-NH2 (peptide)", "peptide": "{5‑TAMRA}-DANYTK-NH2", "SMILES": "C[C@H](NC(=O)[C@H](CC(=O)O)NC(=O)c1ccc(-c2c3ccc(N(C)C)cc3[o+]c3cc(N(C)C)ccc23)c(C(=O)[O-])c1)C(=O)N[C@@H](CC(N)=O)C(=O)N[C@@H](Cc1ccc(O)cc1)C(=O)N[C@H](C(=O)N[C@@H](CCCCN)C(N)=O)[C@@H](C)O"}, "B2": {"name": "TAMRA-YANATS (peptide)", "peptide": "{5‑TAMRA}-YANATS-NH2", "SMILES": "C[C@H](NC(=O)[C@H](Cc1ccc(O)cc1)NC(=O)c1ccc(-c2c3ccc(N(C)C)cc3[o+]c3cc(N(C)C)ccc23)c(C(=O)[O-])c1)C(=O)N[C@@H](CC(N)=O)C(=O)N[C@@H](C)C(=O)N[C@H](C(=O)N[C@@H](CO)C(N)=O)[C@@H](C)O"}}, "key": {"yeast OST3 complex": {"system": "yeast OST3 complex", "assay": "Inhibition of OST activity by nonhydrolyzable LLO analogs", "assay_type": "biochemical, Saccharomyces cerevisiae", "conditions": "for IC50: 0.1 μM purified OST3 complex, 25 μM TAMRA-YANATS, 50 μM LLO C20, inhibitor 2.5–2000 μM (Ia) or 2.5–3000 μM (Ib), 30 °C, read-out: IC50 (apparent)", "description": "Figure 4 Inhibition of yeast OST activity by synthetic nonhydrolyzable LLOs in vitro.A, structure of synthetic nonhydrolyzable LLOs. Synthetic nonreactive LLOs have two GlcNAcs as the sugar moiety, followed by pyrophosphonate and lipid moieties of variable stereochemistry and length, denoted by the carbon chain length. Ia, GlcNAc2-(OH)CPP-(S)-citronellylneryl (C20); Ib, GlcNAc2-CPP-(S)-citronellylfarnesyl (C25). Note that Ia is a hydroxy-phosphonate (with an additional OH group, single diastereomer, R/S configuration unassigned), while Ib is a phosphonate without an additional hydroxyl group. Figure modified from Ramirez et al. 2017 ([42]). B, quantification of inhibition by nonhydrolyzable LLOs shown in A. Reactions were performed with 0.1 μM purified OST3 complex, 25 μM peptide TAMRA-YANATS, 50 μM LLO C20, and varying concentrations of the different synthetic inhibitory LLOs. Glycopeptide product was measured by UPLC and turnover rates were determined from the linear initial phase of the reaction. % inhibition was determined relative to a control reaction without nonhydrolyzable LLOs. […]\n(§1) Concentrations of reactive LLO analogs were determined by in vitro glycosylation (see below) by titrating varying amounts of LLO against a known amount of fluorescently labeled peptide. Concentrations of nonreactive LLO analogs were determined by in vitro glycosylation by titrating varying amounts of nonreactive LLO while using known amounts of both fluorescently labeled peptide and active LLO analog.\n(§2) Reactions were performed in a total volume of 10 μl containing the specified amount of TAMRA-labeled peptide, synthetic LLO analog, 10 mM MnCl2, and purified OST after size-exclusion chromatography in purification buffer (50 mM Hepes, pH 7.5, 150 mM NaCl, 1 mM MgCl2, 1 mM MnCl2, 10% (v/v) glycerol, 0.03% (w/v) DDM, and 0.006% (w/v) CHS). The concentration of OST was calculated using the molecular weight of 280 kDa. […]\n(§3) Samples were analyzed by reverse-phase chromatography using a UPLC Dionex UltiMate 3000 with an Accucore 150-C18 100 × 2.1 mm 2.6 μm column (Thermo Fisher Scientific). […]"}, "OST3 complex [1]": {"target": "T1, OST3 complex (Saccharomyces cerevisiae, UniProt P39007)", "T1 construct": "were purified separately from strains expressing only one type of complex; made in house; host or cells: Saccharomyces cerevisiae, BY4742-derived strain ost6::LEU2MX6 OST4-1D4::kanMX6 YEp352-OST3", "assay": "Peptide competition assay (unlabeled peptide vs TAMRA-DANYTK)", "assay_type": "biochemical", "conditions": "0.4 μM purified OST3 complex, 150 μM LLO C20, 25 μM TAMRA-DANYTK, 25 μM unlabeled competitor peptide, 30 min, relative to control without competitor", "description": "Figure 2 In vitro glycosylation assay for OST activity and peptide sequence preferences.A, schematic representation of the in vitro reaction setup for yeast OST activity. The peptide substrate containing the glycosylation sequon N-X-(S/T) is labeled with the TAMRA fluorophore at the N-terminus. Incubation with OST, synthetic LLO, and a divalent metal ion (Mn^2+preferred) results in the transfer of the sugar moiety (two GlcNAcs, blue squares) from the LLO to the fluorescently labeled peptide, yielding a glycopeptide product. […] The glycopeptide elutes earlier than the peptide and amounts of glycopeptide are quantified at different reaction time points by peak integration. C, quantification of kinetic parameters for synthetic peptide TAMRA-DANYTK. […] Glycopeptide product was measured by UPLC and turnover rates were determined by linear regression of the initial phase of the reaction and taking into account the enzyme concentration. […] E, quantification of kinetic parameters for synthetic peptide TAMRA-YANATS. […] Turnover rates were determined as in C. […]\nas §3"}, "TbStt3A": {"system": "TbStt3A", "conditions": "reported for TbStt3A, compound 34d; ref [42]; cited from earlier work", "description": "The nonreactive LLO analogs Ia and Ib had the same disaccharide and lipid structures as the reactive LLO substrates LLO C20 and LLO C25, respectively. However, they differed from their reactive counterpar ..."}, "OST3 complex [2]": {"target": "T1, OST3 complex", "assay": "In vitro glycosylation assay, kinetic parameters for synthetic LLOs, OST3 complex", "assay_type": "biochemical", "conditions": "OST3 complex, under the tested conditions", "description": "Synthetic LLO substrates all have two GlcNAcs as the sugar moiety, followed by pyrophosphate and lipid moieties (−R) of variable stereochemistry and length, denoted by the carbon chain length. C10, (S)-citronellyl; C15, farnesyl; C20, (S)-citronellylneryl; C25, (S)-citronellylfarnesyl; C90, represents the natural yeast dolichol lipid tail structure where n = 15. Figure modified from Ramirez et al. 2017 ([42]). B, quantification of kinetic parameters for the synthetic LLOs. Reactions were performed with 0.1 μM purified OST3 complex, 25 μM peptide TAMRA-YANATS, and varying concentrations of the different synthetic LLOs. Glycopeptide product was measured by UPLC and turnover rates were determined from the linear initial phase of the reaction. The mean of three reactions is shown and the data were fitted by nonlinear regression according to the Michaelis–Menten formula (R^2 = 0.9842 (LLO C15), 0.9685 (LLO C20), 0.9261 (LLO C25)) using Prism. Error bars indicate standard deviations from the mean (n = 3).\nas §1\nas §2, with “kDa. The reaction mixture was preincubated at 30 °C for 5 min before adding the peptide to start the reaction that proceeded at 30 °C. Time points were taken such that the reaction was in the linear phase.” for “kDa.”\n(§4) Samples were analyzed by reverse-phase chromatography using a UPLC Dionex UltiMate 3000 with an Accucore 150-C18 100 × 2.1 mm 2.6 μm column (Thermo Fisher Scientific). One microliter sample (2 pmol of peptide) was injected and measured by isocratic elution using a certain proportion of ACN (15% ACN for peptide TAMRA-DANYTK; 20% ACN for peptide TAMRA-YANATS) in 10 mM KPO4, pH 8.0 buffer so that the glycopeptide and peptide are fully separated and elute within 3 min at a constant flow rate of 0.7 ml/min, with a column temperature of 45 °C. The peptide and glycopeptide were detected through TAMRA fluorescence (excitation wavelength: 546 nm; emission wavelength: 579 nm).\nThe UPLC profiles were analyzed by integrating the peaks corresponding to the glycopeptide and peptide using Chromeleon 7 (Dionex) and calculating the amount of glycopeptide formed using the following equation, as previously described ([43]): [GP]=PeakareaGP/PeakareaP+PeakareaGP×[P]\n[GP] is the concentration of glycopeptide, Peak areaGP/P is the area under the curves measured for the glycopeptide or peptide, respectively, and [P] is the concentration of peptide at the start of the reaction. […] Unless specified otherwise, turnover rates were determined from the initial rates of reaction by taking into account the enzyme concentration in the reaction. […]"}, "OST3 complex [3]": {"target": "T1, OST3 complex", "assay": "Turnover of synthetic TAMRA-labeled peptides", "assay_type": "biochemical", "conditions": "0.5 µM OST3 complex, 20 µM peptide", "description": "TAMRA-labeled peptides with 5-TAMRA at the N-terminus and an amide group at the C-terminus were synthesized by WatsonBio Sciences. Unlabeled peptides (Table S1) were synthesized by Genscript Corp. and were designed so that the asparagine of the glycosylation sequon was in the middle (except for Peptide 8). Lyophilized peptides were dissolved in dimethyl sulfoxide (DMSO), unless specified otherwise, to a 3 mM stock solution and further diluted in ddH2O for reactions.\nReactions were performed in a total volume of 10 μl containing the specified amount of TAMRA-labeled peptide, synthetic LLO analog, 10 mM MnCl2, and purified OST after size-exclusion chromatography in purification buffer (50 mM Hepes, pH 7.5, 150 mM NaCl, 1 mM MgCl2, 1 mM MnCl2, 10% (v/v) glycerol, 0.03% (w/v) DDM, and 0.006% (w/v) CHS). The concentration of OST was calculated using the molecular weight of 280 kDa. The reaction mixture was preincubated at 30 °C for 5 min before adding the peptide to start the reaction that proceeded at 30 °C. Time points were taken such that the reaction was in the linear phase. At each time point, 1 μl reaction mixture was taken and the reaction was stopped by dilution in stop solution (0.1% FA in 10% ACN, 10 mM KPO4 pH 8.0) such that the final peptide concentration was 2 μM.\nas §4\nThe UPLC profiles were analyzed by integrating the peaks corresponding to the glycopeptide and peptide using Chromeleon 7 (Dionex) and calculating the amount of glycopeptide formed using the following equation, as previously described ([43]): [GP]=PeakareaGP/PeakareaP+PeakareaGP×[P] […]\nSupp. Table 2. Turnover of synthetic TAMRA-labeled peptides\nPeptide Glycopeptide Turnover after 5 min Relative turnover […]\nTAMRA, tetramethylrhodamine\nTurnover of TAMRA-labeled peptides after 5 min was determined using 0.5 µM OST3 complex, 20 µM indicated peptide and 150 µM LLO C20. Relative turnover compared to TAMRA-DANYTK is given by defining TAMRA-DANYTK turnover as 100 %."}, "[4]": {"target": "Ost3p-containing yeast oligosaccharyltransferase complex (S. cerevisiae) (UniProt P41543)"}, "[5]": {"target": "Ost6p-containing yeast oligosaccharyltransferase complex (S. cerevisiae) (UniProt P41543)"}}, "note": "The star is where a group is joined. 5‑TAMRA = CN(C)c1ccc2c(-c3ccc(C(=O)*)cc3C(=O)[O-])c3ccc(N(C)C)cc3[o+]c2c1"}
{"molecule": "GlcNAc2-(OH)CPP-(S)-citronellylneryl [Ia]", "values": [{"measurement": "IC50", "setting": "yeast OST3 complex", "value": 44, "unit": "µM"}, {"measurement": "relative inhibitory potency, in words", "setting": "yeast OST3 complex; OST3 complex", "value": "more potent inhibitor of the yeast OST3 complex than Ib"}]}
{"molecule": "ADTYANATSDVL [Peptide 5]", "values": [{"measurement": "% inhibition of TAMRA-DANYTK glycopeptide formation", "setting": "OST3 complex [1]", "value": 50, "unit": "%"}]}
{"molecule": "GlcNAc2-CPP-(S)-citronellylfarnesyl [Ib]", "values": [{"measurement": "IC50", "setting": "yeast OST3 complex", "value": 198, "unit": "µM"}, {"measurement": "IC50", "setting": "TbStt3A", "value": "26 ± 3", "unit": "µM"}]}
{"molecule": "CC(=O)NC1C(OC2C(CO)OC(OP(=O)(O)OP(=O)(O)OCCC(C)CCC=C(C)C)C(NC(C)=O)C2O)OC(CO)C(O)C1O", "note": "(stereo not drawn) [LLO C10]", "values": [{"measurement": "activity as LLO substrate", "setting": "OST3 complex [2]", "value": "no detectable activity"}]}
{"molecule": "TAMRA-ADTYANATSDVL [TAMRA-labeled Peptide 5]", "values": [{"measurement": "Turnover after 5 min", "setting": "OST3 complex [3]; 150 µM LLO C20", "value": 10, "unit": "%"}, {"measurement": "Glycopeptide detected", "setting": "OST3 complex [3]; 150 µM LLO C20, 5 min", "value": "Yes"}, {"measurement": "Relative turnover", "setting": "OST3 complex [3]; TAMRA-DANYTK turnover defined as 100 %, 5 min, 150 µM LLO C20", "value": 167, "unit": "%"}]}
{"molecule": "B1", "values": [{"measurement": "apparent KM of the peptide in the in vitro glycosylation assay (Michaelis-Menten fit; about 1 μM OST3 complex, 150 μM LLO C20, 10-400 μM peptide, 30 °C)", "setting": "[4]", "value": 201, "unit": "µM"}]}
{"molecule": "B2", "values": [{"measurement": "apparent KM of the peptide in the in vitro glycosylation assay (Michaelis-Menten fit; 0.1 μM OST6 complex, 100 μM LLO C20, varying peptide, 30 °C)", "setting": "[5]", "value": 44.8, "unit": "µM"}, {"measurement": "apparent KM of the peptide in the in vitro glycosylation assay (Michaelis-Menten fit; 0.1 μM OST3 complex, 100 μM LLO C20, 10-500 μM peptide, 30 °C)", "setting": "[4]", "value": 55.6, "unit": "µM"}]}
